{
  "source": "patent US20130287918A1",
  "about": "“MICROBICIDAL COMPOSITION” (DUPONT NUTRITION DIOSCIENCES APS, priority 2010, published 2013)",
  "format_in_all_cases": "cell-based",
  "key": {"Saccharomyces servazzii": {"system": "Saccharomyces servazzii", "assay": "In vitro susceptibility of contaminant yeast by minimal inhibition concentrations", "conditions": "MicroGARD 200 at 1% (w/v); allyl isothiocyanate 0.01%; FP 1000-D1 at 1% (w/v)", "procedure": "The dominating yeast in the control batch was traced back to Pichia spp., likely to be the added DCS 1175 strain. At what time point the contaminant yeast occurred is not known. The contaminant yeast. Saccharomyces servazzii, was tested in vitro for susceptibility towards MicroGARD® 200, allyl isothiocyanate, and the FP1000 variant FP 1000-D1 by determination of minimal inhibition concentrations (data not shown) The results confirmed a tolerance of the yeast against MicroGARD® 200 at 1% (w/v) and susceptibility towards allyl isothiocyanate 0.01% and FP 1000-D1 at 1% (w/v), respectively. Consequently, although eventually present in all batches, Saccharomyces servazzii could have been suppressed in the preserved batches, but was able to outgrow in batch D. The high acetic acid concentration in the unpreserved batch A and the competing yeast flora could have caused suppression of the contaminant in those samples."}, "[1]": {"system": "Candida parapsilosis DCS 1090", "assay": "Minimal Inhibition Concentration Assay (MIC), 96 well liquid based", "conditions": "Lodderomyces parapsilosis, DCS1090; in blend FP1000S; read-out: actual presence of the individual compound in the blend at MIC level", "from_the_text": "(§1) The target strains used for assessment of antimicrobial activity are isolates of different origin e.g. food spoilage isolates, spoilage organisms provided by a customer, national strain collections (e.g. DSMZ, ATCC) collected in the in house Danisco Culture Collection (DCS) (Danisco, Brabrand, Denmark), maintained at −86′C in suitable broth containing glycerol 50% (v/v). The strains were chosen to represent Gram negative and fungal strains. All species used were aerobic. Before each experiment, stock cultures were propagated through two consecutive growth cycles in suitable media and temperature. The overnight cultures are diluted in saline solution to obtain working cultures.\n(§2) Yeast and mould strains were incubated at 25° C., and bacterial isolates were grown at 30° C. under aerobic conditions depending on the preferred conditions for the particular strain (Method no AP-002).\n(§3) The Minimal Inhibition Concentration Assay (MIC) is a 96 well liquid based assay developed for an automated assessment system and performed essentially as described in (Method no AP-003). Indicator strains (table 2) are tested for inhibition of growth by the putative anti-microbial substances and combinations thereof, using a wide concentration range (depending on the compound), in this case by performing a ⅔-dilution series of each sample at pH 6.0 (±0.2)). From a 10 fold diluted overnight culture 5 μl of each strain was inoculated in one well corresponding to an approximate inoculation density of 10^3-10^4 cells/well. Media used were YM-broth for yeast and moulds and CASO-broth for bacterial isolates. Strains were incubated at 24° C. or 30° C. for 24 to 48 hours depending on the strain. The increase in optical density (O.D.) after incubation is compared to a growth control to estimate whether the substance has a bacteriostatic effect and to determine the MIC. MIC is defined as the lowest concentration of the antimicrobial that will inhibit measurable growth. A bacteriostatic effect is defined as the OD620 being less than or equal to 20% of the growth control after incubation.\n(§4) To obtain more accurate estimates of the values, an Excel macro was used to process the raw data. The macro scans the raw data and finds the two concentrations that lie on either side of the O.D. 20% threshold value. It then pinpoints the actual concentration where the O.D. crosses the threshold, using linear correlation. All data are presented as the mean values of duplicates for each microorganism.\n(§5) The MIC assays were run on a fully automated assessment system consisting of a 9-hotel Cytohotel (Thermo), a Biomek FxP pipetting robot (Beckman Coulter), an ORCA robotic arm on a 3 meter rails (Beckman Coulter), 2 Synergy HT spectrophotometers (Biotek), a Cytomat 6001 incubator (Thermo) and a Cytomat 2C incubator (Thermo)."}, "Pichia anomala DCS 603": {"system": "Pichia anomala DCS 603", "assay": "Minimal Inhibition Concentration Assay (MIC), 96 well liquid based", "conditions": "Hansenula anomala, DCS603; in blend FP1000S; read-out: actual presence of the individual compound in the blend at MIC level", "from_the_text": "as §1, §2, §3, §4, §5"}, "[2]": {"system": "Rhodotorula glutinis DCS 606", "assay": "Minimal Inhibition Concentration Assay (MIC), 96 well liquid based", "conditions": "DCS606, in blend FP1000S, read-out: actual presence of the individual compound in the blend at MIC level", "from_the_text": "as §1, §2, §3, §4, §5"}, "[3]": {"system": "Debaryomyces hansenii DCS 605", "assay": "Minimal Inhibition Concentration Assay (MIC), 96 well liquid based", "conditions": "DCS605, in blend FP1000S, read-out: actual presence of the individual compound in the blend at MIC level", "from_the_text": "as §1, §2, §3, §4, §5"}, "[4]": {"system": "Candida tropicalis DCS 604", "assay": "Minimal Inhibition Concentration Assay (MIC), 96 well liquid based", "conditions": "DCS604, in blend FP1000S, read-out: actual presence of the individual compound in the blend at MIC level", "from_the_text": "as §1, §2, §3, §4, §5"}, "Escherichia coli DCS 495": {"system": "Escherichia coli DCS 495", "assay": "Minimal Inhibition Concentration Assay (MIC), 96 well liquid based", "conditions": "DCS495, read-out: actual presence of the individual compound in the blend at MIC level", "from_the_text": "as §1, §2, §3, §4, §5"}, "[5]": {"system": "Pseudomonas fluorescens DCS 428", "assay": "Minimal Inhibition Concentration Assay (MIC), 96 well liquid based", "conditions": "DCS428, in blend FP1000S, read-out: actual presence of the individual compound in the blend at MIC level", "from_the_text": "as §1, §2, §3, §4, §5"}, "[6]": {"system": "Saccharomyces cerevisiae DCS 599", "assay": "Minimal Inhibition Concentration Assay (MIC), 96 well liquid based", "conditions": "DCS599, in blend FP1000S, read-out: actual presence of the individual compound in the blend at MIC level", "from_the_text": "as §1, §2, §3, §4, §5"}, "[7]": {"system": "Salmonella enteritidis DCS 1152", "assay": "Minimal Inhibition Concentration Assay (MIC), 96 well liquid based", "conditions": "Salmonella enterica, in blend FP1000S, read-out: actual presence of the individual compound in the blend at MIC level", "from_the_text": "as §1, §2, §3, §4, §5"}, "[8]": {"system": "Aspergillus versicolor DCS 1069", "assay": "Minimal Inhibition Concentration Assay (MIC), 96 well liquid based", "conditions": "DCS1069, in blend FP1000S, read-out: actual presence of the individual compound in the blend at MIC level", "from_the_text": "as §1\n(§6) Mould spore inoculums were prepared as follows: approx. 2 ml of sterile demineralised water was used to wash the spores off an out-grown mould (minimum 5 day old plate). This suspension is transferred to a sterile container.\nas §2\nas §3, with “MIC is defined as the lowest concentration of the antimicrobial that will inhibit measurable growth. A bacteriostatic effect is defined as the OD620 being less than or equal to 20% of the growth control after incubation.” left out"}, "[9]": {"system": "Aspergillus niger DCS 1115", "assay": "Minimal Inhibition Concentration Assay (MIC), 96 well liquid based", "conditions": "DCS1115, in blend FP1000S, read-out: actual presence of the individual compound in the blend at MIC level", "from_the_text": "as §1, §6, §2\nas §3, with “MIC is defined as the lowest concentration of the antimicrobial that will inhibit measurable growth. A bacteriostatic effect is defined as the OD620 being less than or equal to 20% of the growth control after incubation.” left out"}, "[10]": {"system": "Aspergillus parasiticus DCS 709", "assay": "Minimal Inhibition Concentration Assay (MIC), 96 well liquid based", "conditions": "DCS709, in blend FP1000S, read-out: actual presence of the individual compound in the blend at MIC level", "from_the_text": "as §1, §6, §2\nas §3, with “MIC is defined as the lowest concentration of the antimicrobial that will inhibit measurable growth. A bacteriostatic effect is defined as the OD620 being less than or equal to 20% of the growth control after incubation.” left out"}},
  "data": [
    {"smiles": "C=CCN=C=S", "note": "[AITC, allyl isothiocyanate]", "values": [
      {"measurement": "in vitro susceptibility of contaminant yeast (data not shown)", "setting": "Saccharomyces servazzii", "value": "susceptibility"},
      {"measurement": "MIC", "setting": "[1]", "value": 67, "unit": "µg/mL"},
      {"measurement": "MIC", "setting": "Pichia anomala DCS 603", "value": 380, "unit": "µg/mL"},
      {"measurement": "MIC", "setting": "[2]", "value": 200, "unit": "µg/mL"},
      {"measurement": "MIC", "setting": "[3]", "value": 213, "unit": "µg/mL"},
      {"measurement": "MIC", "setting": "[4]", "value": 235, "unit": "µg/mL"},
      {"measurement": "MIC", "setting": "Escherichia coli DCS 495", "value": "> 700", "unit": "µg/mL"},
      {"measurement": "MIC", "setting": "[5]", "value": 412, "unit": "µg/mL"},
      {"measurement": "MIC", "setting": "[6]", "value": 196, "unit": "µg/mL"},
      {"measurement": "MIC", "setting": "[7]", "value": "> 700", "unit": "µg/mL"},
      {"measurement": "MIC", "setting": "[8]", "value": 143, "unit": "µg/mL"},
      {"measurement": "MIC", "setting": "[9]", "value": 106, "unit": "µg/mL"},
      {"measurement": "MIC", "setting": "[10]", "value": 38, "unit": "µg/mL"}
    ]}
  ]
}
